Measurements taken from DBAASP.
Values after ≈ are worked out from the molar mass of the structure shown. Blank lines part the entries; values can stand above or below the compound they belong to.

Key:
Assay in all cases: ≥ marks a high value that may be exact or a test limit, other limits are often not marked, values filed in µg/mL are converted to µM
[1] = test system: Escherichia coli HB101
[2] = test system: Staphylococcus aureus Cowan 1
[3] = test system: Leishmania major MHOM/IL/67/JERICHO-II
[4] = test system: Candida glabrata ATCC 15126
[5] = test system: Klebsiella pneumoniae ATCC 700603
[6] = test system: Candida albicans ATCC 10231
[7] = test system: Escherichia coli ATCC 23506
[8] = test system: Enterococcus faecalis PCM 2673
[9] = test system: Aspergillus niger ATCC 16404
[10] = test system: Streptococcus pneumoniae ATCC 49619
[11] = test system: Staphylococcus aureus ATCC 9144
[12] = test system: Staphylococcus aureus ATCC 25923
[13] = test system: Pseudomonas aeruginosa ATCC 9027
[14] = test system: Escherichia coli ATCC 25922
[15] = test system: Escherichia coli CPCC 100521
[16] = test system: Staphylococcus aureus CPCC 100520
[17] = test system: Candida albicans CPCC 400416
[18] = test system: Candida albicans 08032815
[19] = test system: Candida albicans ATCC 2002
[20] = test system: Shigella dysenteriae
[21] = test system: Staphylococcus aureus ATCC 2592
[22] = test system: Candida albicans 08022821
[23] = test system: Candida albicans 08030401
[24] = test system: Candida albicans 08030102
[25] = test system: Pseudomonas aeruginosa 213
[26] = test system: Escherichia coli ESBL 63103
[27] = test system: Pseudomonas aeruginosa LES400
[28] = test system: Candida albicans C627
[29] = test system: Pseudomonas aeruginosa H103
[30] = test system: Enterococcus faecium mic80
[31] = test system: Staphylococcus aureus C623
[32] = test system: Bacillus cereus ATCC 11778
[33] = test system: Streptococcus pyogenes ATCC 19615
[34] = test system: Pseudomonas aeruginosa ATCC 27853
[35] = test system: Staphylococcus aureus ATCC 29213
[36] = test system: Salmonella enterica subsp. enterica serovar Enteritidis ATCC 13076
[37] = test system: Serratia marcescens ATCC 21202

- MIC [4]: ≥ 173 µM
- MIC [5]: 86.4 µM (≈ 128 µg/mL)
- MIC [6]: > 173 µM
- MIC [7]: ≥ 173 µM
- MIC [8]: ≥ 173 µM
- MIC [9]: ≥ 173 µM
- MIC [10]: ≥ 173 µM
- MIC [11]: ≥ 173 µM
- MIC [12]: > 173 µM
- MIC [13]: > 173 µM
- MIC [14]: 173 µM (≈ 256 µg/mL)
Structure (SMILES): CC[C@H](C)[C@H](NC(=O)[C@H](C)NC(=O)[C@H](CCC(=O)O)NC(=O)[C@H](CO)NC(=O)[C@@H](N)Cc1ccccc1)C(=O)N[C@@H](CCCCN)C(=O)N[C@@H](CCCCN)C(=O)N[C@H](C(=O)N[C@H](C(=O)N[C@@H](CC(=O)O)C(=O)N[C@@H](Cc1ccccc1)C(=O)N[C@@H](CC(C)C)C(=O)NCC(N)=O)[C@@H](C)CC)[C@@H](C)CC [FSEAIKKIIDFLG]

- MIC [18]: ≥ 62.5 µM
- MIC [19]: 3.13 µM (≈ 9.99 µg/mL)
- MIC [20]: 15.6 µM (≈ 50 µg/mL)
- MIC [21]: 15.6 µM (≈ 50 µg/mL)
- MIC [22]: 7.81 µM (≈ 25 µg/mL)
- MIC [23]: 15.6 µM (≈ 50 µg/mL)
- MIC [24]: 31.3 µM (≈ 99.9 µg/mL)
- MIC [14]: 31.3 µM (≈ 99.9 µg/mL)
Structure (SMILES): CC[C@H](C)[C@H](NC(=O)[C@H](CCC(N)=O)NC(=O)[C@H](CCCCN)NC(=O)[C@H](Cc1ccc(O)cc1)NC(=O)[C@H](CC(C)C)NC(=O)[C@H](CCC(N)=O)NC(=O)[C@@H]1CCCN1C(=O)[C@H](CCSC)NC(=O)[C@H](CCCCN)NC(=O)[C@@H](NC(=O)[C@H](CCCN=C(N)N)NC(=O)[C@H](CCCCN)NC(=O)[C@@H](NC(=O)[C@H](CCSC)NC(=O)[C@@H](NC(=O)[C@H](CC(C)C)NC(=O)[C@@H](NC(=O)[C@@H](N)CCCN=C(N)N)[C@@H](C)CC)[C@@H](C)O)[C@@H](C)O)C(C)C)C(=O)N[C@H](C(=O)N[C@H]1CSSC[C@@H](C(=O)O)NC(=O)[C@H]([C@@H](C)O)NC(=O)[C@H](CCCCN)NC(=O)[C@H](Cc2ccccc2)NC(=O)[C@H](CC(C)C)NC(=O)[C@H](CCCN=C(N)N)NC1=O)C(C)C [RILTMTKRVKMPQLYKQIVCRLFKTC]

- MIC [25]: ≥ 45.7 µM
- MIC [26]: 11.4 µM (≈ 16 µg/mL)
- MIC [27]: 22.9 µM (≈ 32 µg/mL)
- MIC [28]: 5.72 µM (≈ 8 µg/mL)
- MIC [12]: 11.4 µM (≈ 16 µg/mL)
- MIC [29]: 22.9 µM (≈ 32 µg/mL)
- MIC [30]: 5.72 µM (≈ 8 µg/mL)
- MIC [31]: 5.72 µM (≈ 8 µg/mL)
Structure (SMILES): CC(C)C[C@H](NC(=O)[C@H](CC(C)C)NC(=O)[C@H](CCCN=C(N)N)NC(=O)[C@H](Cc1c[nH]c2ccccc12)NC(=O)[C@H](Cc1c[nH]c2ccccc12)NC(=O)[C@H](CCCN=C(N)N)NC(=O)[C@H](CCCCN)NC(=O)[C@H](Cc1c[nH]c2ccccc12)NC(=O)[C@@H](N)CCCN=C(N)N)C(=O)O [RWKRWWRLL]

The remaining lines, values behind:

Structure (SMILES): CSCC[C@H](NC(=O)[C@@H](NC(=O)[C@H](CCCCN)NC(=O)[C@H](Cc1c[nH]c2ccccc12)NC(=O)[C@H](CC(C)C)NC(=O)[C@H](C)N)[C@@H](C)O)C(=O)N[C@@H](CC(C)C)C(=O)N[C@@H](CCCCN)C(=O)N[C@@H](CCCCN)C(=O)N[C@@H](CC(C)C)C(=O)NCC(=O)N[C@H](C(N)=O)[C@@H](C)O [ALWKTMLKKLGT]
- MIC [1]: ≥ 54 µM
- MIC [2]: ≥ 54 µM
- MIC [3]: ≥ 54.2 µM

Structure (SMILES): CC[C@H](C)[C@H](N)C(=O)N[C@H](C(=O)NCC(=O)N1CCC[C@H]1C(=O)N[C@H](C(=O)N[C@@H](CC(C)C)C(=O)NCC(=O)N[C@@H](CC(C)C)C(=O)N[C@H](C(=O)NCC(=O)N[C@@H](CCCCN)C(=O)N[C@@H](C)C(=O)N[C@@H](CC(C)C)C(=O)NCC(=O)NCC(=O)N[C@@H](CC(C)C)C(=O)N[C@@H](CC(C)C)C(N)=O)[C@@H](C)CC)C(C)C)[C@@H](C)CC [IIGPVLGLIGKALGGLL]
- MIC [15]: ≥ 639 µM
- MIC [16]: ≥ 160 µM
- MIC [17]: ≥ 160 µM

Structure (SMILES): CSCC[C@H](NC(=O)[C@H](CO)NC(=O)[C@H](CS)NC(=O)[C@@H](NC(=O)[C@H](CCC(=O)O)NC(=O)[C@H](CC(C)C)NC(=O)[C@H](CC(C)C)NC(=O)[C@@H]1CCCN1C(=O)[C@H](CC(C)C)NC(=O)[C@@H](N)C(C)C)[C@@H](C)O)C(=O)N[C@H](C(=O)N[C@@H](CS)C(=O)N[C@@H](Cc1c[nH]c2ccccc12)C(=O)N[C@@H](CCC(=O)O)C(=O)N[C@@H](CC(N)=O)C(=O)N[C@@H](CC(N)=O)C(=O)N[C@@H](CCC(N)=O)C(=O)N[C@H](C(=O)N[C@@H](Cc1ccccc1)C(=O)NCC(=O)N[C@@H](CCCCN)C(=O)O)[C@@H](C)O)[C@@H](C)O [VLPLLETCSMTCWENNQTFGK]
- MIC [32]: ≥ 41.4 µM
- MIC [33]: ≥ 41.4 µM
- MIC [34]: > 41.4 µM
- MIC [5]: > 41.4 µM
- MIC [35]: > 41.4 µM
- MIC [36]: ≥ 41.4 µM
- MIC [37]: ≥ 41.4 µM
- MIC [14]: > 41.4 µM
